These results are taken from patent US20140093960A1, “CELL DIFFERENTIATION INDUCER AND DIFFERENTIATION INDUCING METHOD” (The University of Tokushima, priority 2011, published 2014).

Common to all, as to type: cell-based
The subject of test [1] is mouse ES cells (AB2-2). Put plainly: Induction of differentiation of mouse ES cell, change of morphology (Example 7(1)). The following applies: minimum concentration at which the change of the morphology was observed; embryoid bodies from mouse ES cells, 25 to 100 μM, cultured 4 days, hematoxylin staining. Here is the method:
The culture medium was added to a petri dish having a diameter of 60 mm. Further, 1 10^6 mouse ES cells (AB2-2) which were obtained from Dr. Alan Bradley in The Wellcome Trust Sanger Institute were added thereto, and incubated under 5% CO2 atmosphere at 37° C. for 1 day. Then, the cells were separated using a glass pipet and added to the same petri dish again, and incubated under 5% CO2 atmosphere at 37° C. for 3 days to form embryoid bodies.
Then, the above cultured cell dispersion (100 μL) was added to 96 well plate which was coated with collagen type 1, and was incubated under 5% CO2 atmosphere at 37° C. overnight. Separately, each examined compound was dissolved in a culture medium which was obtained by removing […] and a leukemia inhibitory factor from an ES culture medium and which was used for inducing a differentiation, and the solutions were added each well so that the final concentrations were 25 to 100 μM. As examined compounds, compounds which were synthesized by similar methods to Examples 1 to 6 in addition to the compounds synthesized in Examples 1 to 6 were used. […] In addition, fetal bovine serum was added at a final concentration of 5% and bFGF: basic fibroblast growth factor was added at a final concentration of 2 ng/mL to each well, and the cells were cultured in an adhesive state under 5% CO2 atmosphere at 37° C. for 4 days.
After the above culture, paraformaldehyde was added to each well at a final concentration of 2% to fix the cells. The cells were stained with hematoxylin, and the change of the morphology thereof was observed using an optical microscope. As control, only dimethylsulfoxide was added at a final concentration of 0.5% without adding the examined compound. […] In addition, the minimum concentrations of each examined compound at which the change of the morphology was observed are summarized in Table 2.

In the next test the test system is mouse ES cell. Put plainly: Gene expression analysis by RT-PCR (Example 7(3)). Conditions: mouse ES cell treated with 80 μM for 5 days. Here is the method:
Differentiation of a mouse ES cell was induced similarly to the above (1) except that the cell was treated with 80 μM of the examined compound 4 for 5 days. From the obtained cell, total RNA was extracted using TRIzol reagent. Using the total RNA, cDNA was synthesized by an ordinary method. A polymerase chain reaction was carried out using the synthesized cDNA as a template and each primer of Oct3/4▪Nanog—a marker of an undifferentiated cell, Nestin—a marker of a neural stem cell, Sox9▪Sox10▪Slug—a marker of a neural crest cell, GATA2—a marker of a mesoderm, Sca-1—a marker of a stem cell, and c-kit—a marker of a hematopoietic stem cell for analyzing the expression of each marker. In addition, for comparison, the expression was similarly analyzed with respect to an undifferentiated mouse ES cell and an embryoid body obtained by culturing a mouse ES cell for 3 days.

The test system of test [2] is mouse ES cells (AB2-2). Put plainly: Induction of differentiation of mouse ES cell, morphology (Example 10). Conditions: 50 μM, 4 days, hematoxylin staining, optical microscope. As to the method: A culture medium to induce an embryoid bodies used in Example 7 (4 mL) was added to a petri dish having a diameter of 60 mm. Further, 10^6 mouse ES cells (AB2-2) were added thereto, and incubated under 5% CO2 atmosphere at 37° C. for 3 days. The obtained embryoid was added into a […] volume tube. The above petri dish was washed by adding 1 PBS (5 mL), and the PBS was added into the above tube. The half quantity of the obtained cells was transferred to a separate tube, and the tube was stood still at room temperature for 5 minutes. After the supernatant was removed, an NP medium (10.5 mL) used in Example 7 was added. The cells were dispersed well, and the mixture was added to each well of a 96 well plate which was coated with collagen in an amount of 100 μL. The cells were incubated under 5% CO2 atmosphere at 37° C. overnight.
In DMSO, 3,4-dihydroxybenzonitrile (manufactured by Tokyo Chemical Industry Co., Ltd.) was dissolved. The solution was added to each well so that the total amount became 200 μL in a final concentration of 12.5 μM, 25 μM or […]. Further, blood serum and bFGF: basic fibroblast growth factor were added to each well respectively in final concentrations of 5% and 10 ng/mL, and the cells were cultured under 5% CO2 atmosphere at 37° C. for 4 days.
After the cultivation, 100 μL of the culture medium was removed from each well. […]

The subject of test [3] is mouse ES cells (AB2-2). Put plainly: Combinational effect with retinoic acid, cell count (Example 9). The following applies: 4 days; for number of the nervous system cells: average of four experiments. Here is the method: The culture medium was added to a petri dish having a diameter of 60 mm. Further, 1 10^6 mouse ES cells (AB2-2) which were obtained from Dr. Alan Bradley in The Wellcome Trust Sanger Institute were added thereto, and incubated under 5% CO2 atmosphere at 37° C. for 1 day. Then, the cells were separated using a glass pipet and added to the same petri dish again, and incubated under 5% CO2 atmosphere at 37° C. for 3 days to form embryoid bodies. […] Then, the above cultured cell dispersion ([…]) was added to 96 well plate which was coated with collagen type I, and was incubated under 5% CO2 atmosphere at 37° C. overnight. On the next day, the examined compound 5 only or with retinoic acid in combination in each final concentration of 10 nM was added thereto, and the cells were incubated in adhesive state under 5% CO2 atmosphere at 37° C. for 4 days. After the incubation, the cells were washed with PBS, and separated using 0.25% Trypsin. The number of the cells was counted. This experiment was carried out four times, and the average of the counted numbers was obtained. […] In the FIG. 7, “RA” represents retinoic acid.

As for “2-(2,3-Dihydroxyphenyl)thiazole-4-carboxylic acid [examined compound 3]”, the Minimum inhibitory concentration with mouse ES cells (AB2-2) [1] amounted to 70 μ M 70 μ M. Besides, in the test on mouse ES cell, the “Slug expression (marker of a neural crest cell)” value is reported as “remarkably expressed”, the “Sox9 expression (marker of a neural crest cell)” value is reported as “expressed” and the “Sox10 expression (marker of a neural crest cell)” value is recorded as “expressed”.

Take `N#Cc1ccc(O)c(O)c1` [3,4-dihydroxybenzonitrile]: the “change of the cells' morphology” value in the test with mouse ES cells (AB2-2) [2] was “nervous system cells which had cell processes all around were observed”.

`COC(=O)c1cc(O)c(O)c(O)c1` [Example 5, Methyl 3,4,5-trihydroxybenzoate]: the “number of the nervous system cells” value was 1.71±0.51 10^6 with mouse ES cells (AB2-2) [3] (compound only, final concentration 10 nM) and 3.23±0.42 10^6 in the test on mouse ES cells (AB2-2) [3] (in combination with retinoic acid, each final concentration 10 nM). In the test on mouse ES cells (AB2-2) [3] (each final concentration 10 nM), the “increase of the number of nervous system cells with retinoic acid in combination versus compound only” value is “about 1.89 times”.

For the compound `O=C(O)c1csc(-c2cccc(OCc3ccccc3)c2OCc2ccccc2)n1` [examined compound 1, 2-{2,3-Bis(benzyloxy)phenyl}thiazole-4-carboxylic acid], the “Minimum effective concentration for morphology change” value in the test on mouse ES cells (AB2-2) [1] is 50 μ M.

Consider `O=C(O)[C@@H]1CSC(c2cccc(OCc3ccccc3)c2OCc2ccccc2)=N1` [examined compound 2, (R)-2-{2,3-Bis(benzyloxy)phenyl}-4,5-dihydrothiazole-4-carboxylic acid], for which the “Minimum effective concentration for morphology change” value with mouse ES cells (AB2-2) [1] turned out to be 100 μ M.
